Structures can show the parent of a compound that is named as a salt.
Test system: Acinetobacter baumannii ATCC17961
Assay: Antimicrobial susceptibility testing: 90% growth inhibitory concentration (IC90) determination
Assay type: cell-based
Conditions: Acinetobacter baumannii, ATCC17961, 16 h, 90% growth inhibitory concentration, Acinetobacter baumannii ATCC17961, Iso-Sensitest broth, OD 600 nm over 16 h; read-out: ATCC 17961 IC90
Summary of the method: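 A. baumannii ATCC17961 at ~5×10^5 CFU/ml in Iso-Sensitest broth exposed to 10-point twofold dilutions (e.g. 50–0.097 μM final), 35±2° C. OD600 read every 20 minutes over 16h; IC50 and IC90 derived from inhibition during logarithmic growth.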

| IC90 [nM] | SMILES |
| --- | --- |
| 120 | Cc1nn(CC(=O)Nc2cccnc2)cc1-c1ccc(-c2cnc(C(=O)Nc3ccc(C(=O)N4CCN(C(=O)C5CC[N+](C)(C)CC5)CC4)c(Cl)c3)n2C)c(F)c1F [Example G27, N-[3-chloro-4-[4-(1,1-dimethylpiperidin-1-ium-4-carbonyl)piperazine-1-carbonyl]phenyl]-5-[2,3-difluoro-4-[3-pyridylamino)ethyl] pyrazol-4-yl]phenyl]-1-methyl-imidazole-2-carboxamide; formate] |
| 88 | COc1ccc(NC(=O)Cn2cc(-c3ccc(-c4cnc(C(=O)Nc5ccc(C(=O)N6CCN(C(=O)C7CC[N+](C)(C)CC7)CC6)c(Cl)c5)n4C)c(F)c3F)c(C)n2)nc1 [Example G28, N-[3-chloro-4-[4-(1,1-dimethylpiperidin-1-ium-4-carbonyl)piperazine-1-carbonyl]phenyl]-5-[2,3-difluoro-4-[1-[2-[(5-methoxy-2-pyridyl)amino]-2-oxo-ethyl]-3-methyl-pyrazol-4-yl]phenyl]-1-methyl-imidazole-2-carboxamide; formate] |
| 330 | Cc1nn(CC(=O)N2CCCCC2)cc1-c1ccc(-c2cnc(C(=O)Nc3ccc(C(=O)N4CCN(C(=O)C5CC[N+](C)(C)CC5)CC4)c(Cl)c3)n2C)c(F)c1F [Example G29, N-[3-chloro-4-[4-(1,1-dimethylpiperidin-1-ium-4-carbonyl)piperazine-1-carbonyl]phenyl]-5-[2,3-difluoro-4-[3-methyl-1-[2-oxo-2-(1-piperidyl)ethyl]pyrazol-4-yl]phenyl]-1-methyl-imidazole-2-carboxamide; formate] |
| 1000 | Cc1nn(CC(=O)Nc2ccc(C(=O)N3CC[N+](C)(C)CC3)cc2)cc1-c1ccc(-c2cnc(C(=O)Nc3ccc(C(=O)N4CCN(C(=O)C5CC[N+](C)(C)CC5)CC4)c(Cl)c3)n2C)c(F)c1F [Example G30, N-[3-chloro-4-[4-(1,1-dimethylpiperidin-1-ium-4-carbonyl)piperazine-1-carbonyl]phenyl]-5-[4-[1-[2-[4-(4,4-dimethylpiperazin-4-ium-1-carbonyl)anilino]-2-oxo-ethyl]-3-methyl-pyrazol-4-yl]-2,3-difluoro-phenyl]-1-methyl-imidazole-2-carboxamide; diformate] |
| 140 | Cc1nn(CC(=O)Nc2ccc(F)nn2)cc1-c1ccc(-c2cnc(C(=O)Nc3ccc(C(=O)N4CCN(C(=O)C5CC[N+](C)(C)CC5)CC4)c(Cl)c3)n2C)c(F)c1F [Example G31, N-[3-chloro-4-[4-(1,1-dimethylpiperidin-1-ium-4-carbonyl)piperazine-1-carbonyl]phenyl]-5-[2,3-difluoro-4-[1-[2-[(6-fluoropyridazin-3-yl)amino]-2-oxo-ethyl]-3-methyl-pyrazol-4-yl]phenyl]-1-methyl-imidazole-2-carboxamide; formate] |
| 440 | Cc1nn(CC(=O)Nc2ccnnc2)cc1-c1ccc(-c2cnc(C(=O)Nc3ccc(C(=O)N4CCN(C(=O)C5CC[N+](C)(C)CC5)CC4)c(Cl)c3)n2C)c(F)c1F [Example G33, N-[3-chloro-4-[4-(1,1-dimethylpiperidin-1-ium-4-carbonyl)piperazine-1-carbonyl]phenyl]-5-[2,3-difluoro-4-[3-methyl-1-[2-oxo-2-(pyridazin-4-ylamino)ethyl]pyrazol-4-yl]phenyl]-1-methyl-imidazole-2-carboxamide; formate] |
| 68 | Cc1nn(CC(=O)Nc2ccc(C#N)nc2)cc1-c1ccc(-c2cnc(C(=O)Nc3ccc(C(=O)N4CCN(C(=O)C5CC[N+](C)(C)CC5)CC4)c(Cl)c3)n2C)c(F)c1F [Example G34, N-[3-chloro-4-[4-(1,1-dimethylpiperidin-1-ium-4-carbonyl)piperazine-1-carbonyl]phenyl]-5-[4-[1-[2-[(6-cyano-3-pyridyl)amino]-2-oxo-ethyl]-3-methyl-pyrazol-4-yl]-2,3-difluoro-phenyl]-1-methyl-imidazole-2-carboxamide; formate] |
| 150 | Cc1c(-c2ccc(-c3cnc(C(=O)Nc4ccc(C(=O)N5CCN(C(=O)C6CC[N+](C)(C)CC6)CC5)c(Cl)c4)n3C)c(F)c2F)cnn1CCNC(=O)c1ccccn1 [Example H1, N-[2-[4-[4-[2-[[3-chloro-4-[4-(1,1-dimethylpiperidin-1-ium-4-carbonyl)piperazine-1-carbonyl]phenyl]carbamoyl]-3-methyl-imidazol-4-yl]-2,3-difluoro-phenyl]-5-methyl-pyrazol-1-yl]ethyl]pyridine-2-carboxamide formate] |
| 190 | Cc1nn(CCNC(=O)c2ccccn2)cc1-c1ccc(-c2cnc(C(=O)Nc3ccc(C(=O)N4CCN(C(=O)C5CC[N+](C)(C)CC5)CC4)c(Cl)c3)n2C)c(F)c1F [Example H2, N-[2-[4-[4-[2-[[3-chloro-4-[4-(1,1-dimethylpiperidin-1-ium-4-carbonyl)piperazine-1-carbonyl]phenyl]carbamoyl]-3-methyl-imidazol-4-yl]-2,3-difluoro-phenyl]-3-methyl-pyrazol-1-yl]ethyl]pyridine-2-carboxamide; formate] |
| 180 | Cc1nn(CCNS(=O)(=O)c2ccc(F)cc2)cc1-c1ccc(-c2cnc(C(=O)Nc3ccc(C(=O)N4CCN(C(=O)C5CC[N+](C)(C)CC5)CC4)c(Cl)c3)n2C)c(F)c1F [Example H3, N-[3-chloro-4-[4-(1,1-dimethylpiperidin-1-ium-4-carbonyl)piperazine-1-carbonyl]phenyl]-5-[2,3-difluoro-4-[1-[2-[(4-fluorophenyl)sulfonylamino]ethyl]-3-methyl-pyrazol-4-yl]phenyl]-1-methyl-imidazole-2-carboxamide; formate] |
| 160 | Cc1c(-c2ccc(-c3cnc(C(=O)Nc4ccc(C(=O)N5CCN(C(=O)C6CC[N+](C)(C)CC6)CC5)c(Cl)c4)n3C)c(F)c2F)cnn1CCNC(=O)NC(C)(C)C [Example H4, 5-[4-[1-[2-(tert-butylcarbamoylamino)ethyl]-5-methyl-pyrazol-4-yl]-2,3-difluoro-phenyl]-N-[3-chloro-4-[4-(1,1-dimethylpiperidin-1-ium-4-carbonyl)piperazine-1-carbonyl]phenyl]-1-methyl-imidazole-2-carboxamide; formate] |
| 170 | Cc1nn(CCNC(=O)NC(C)(C)C)cc1-c1ccc(-c2cnc(C(=O)Nc3ccc(C(=O)N4CCN(C(=O)C5CC[N+](C)(C)CC5)CC4)c(Cl)c3)n2C)c(F)c1F [Example H5, 5-[4-[1-[2-(tert-butylcarbamoylamino)ethyl]-3-methyl-pyrazol-4-yl]-2,3-difluoro-phenyl]-N-[3-chloro-4-[4-(1,1-dimethylpiperidin-1-ium-4-carbonyl)piperazine-1-carbonyl]phenyl]-1-methyl-imidazole-2-carboxamide; formate] |
| 170 | Cc1c(-c2ccc(-c3cnc(C(=O)Nc4ccc(C(=O)N5CCN(C(=O)C6CC[N+](C)(C)CC6)CC5)c(Cl)c4)n3C)c(F)c2F)cnn1CCNC(=O)Nc1ccccn1 [Example H6, N-[3-chloro-4-[4-(1,1-dimethylpiperidin-1-ium-4-carbonyl)piperazine-1-carbonyl]phenyl]-5-[2,3-difluoro-4-[5-methyl-1-[2-(2-pyridylcarbamoylamino)ethyl]pyrazol-4-yl]phenyl]-1-methyl-imidazole-2-carboxamide; formate] |
| 190 | Cc1nn(CCNC(=O)Nc2ccccn2)cc1-c1ccc(-c2cnc(C(=O)Nc3ccc(C(=O)N4CCN(C(=O)C5CC[N+](C)(C)CC5)CC4)c(Cl)c3)n2C)c(F)c1F [Example H7, N-[3-chloro-4-[4-(1,1-dimethylpiperidin-1-ium-4-carbonyl)piperazine-1-carbonyl]phenyl]-5-[2,3-difluoro-4-[3-methyl-1-[2-(2-pyridylcarbamoylamino)ethyl]pyrazol-4-yl]phenyl]-1-methyl-imidazole-2-carboxamide; formate] |
| 540 | Cc1nn(CCNC(=O)N2CCCC2)cc1-c1ccc(-c2cnc(C(=O)Nc3ccc(C(=O)N4CCN(C(=O)C5CC[N+](C)(C)CC5)CC4)c(Cl)c3)n2C)c(F)c1F [Example H8, N-[3-chloro-4-[4-(1,1-dimethylpiperidin-1-ium-4-carbonyl)piperazine-1-carbonyl]phenyl]-5-[2,3-difluoro-4-[3-methyl-1-[2-(pyrrolidine-1-carbonylamino)ethyl]pyrazol-4-yl]phenyl]-1-methyl-imidazole-2-carboxamide; formate] |
| 1500 | COc1ccccc1-c1[nH]ncc1-c1ccc(-c2cnc(C(=O)Nc3ccc(C(=O)N4CCN(C(=O)C5CC[N+](C)(C)CC5)CC4)c(Cl)c3)n2C)c(F)c1F [Example I4, N-[3-chloro-4-[4-(1,1-dimethylpiperidin-1-ium-4-carbonyl)piperazine-1-carbonyl]phenyl]-5-[2,3-difluoro-4-[5-(2-methoxyphenyl)-1H-pyrazol-4-yl]phenyl]-1-methyl-imidazole-2-carboxamide; formate] |
| 820 | Cn1c(-c2ccc(-c3cn[nH]c3C3CCOCC3)c(F)c2F)cnc1C(=O)Nc1ccc(C(=O)N2CCN(C(=O)C3CC[N+](C)(C)CC3)CC2)c(Cl)c1 [Example I6, N-[3-chloro-4-[4-(1,1-dimethylpiperidin-1-ium-4-carbonyl)piperazine-1-carbonyl]phenyl]-5-[2,3-difluoro-4-(5-tetrahydropyran-4-yl-1H-pyrazol-4-yl)phenyl]-1-methyl-imidazole-2-carboxamide; formate] |
| 760 | Cn1c(-c2ccc(-c3cn[nH]c3C3=CCOCC3)c(F)c2F)cnc1C(=O)Nc1ccc(C(=O)N2CCN(C(=O)C3CC[N+](C)(C)CC3)CC2)c(Cl)c1 [Example I7, N-[3-chloro-4-[4-(1,1-dimethylpiperidin-1-ium-4-carbonyl)piperazine-1-carbonyl]phenyl]-5-[4-[5-(3,6-dihydro-2H-pyran-4-yl)-1H-pyrazol-4-yl]-2,3-difluoro-phenyl]-1-methyl-imidazole-2-carboxamide;formate] |

— patent US12421211B2, “Heterocyclic compounds” (Hoffmann-La Roche Inc., priority 2021, dated 2025)
